Experimental data from patent publication US8785457B2 (Cellzome Limited, priority 2009, dated 2014).
Read-outs that look alike come from different tables or passages of the source.

Columns and labels:
[1] = test system: Salmonella strain TA98
Procedure: (§1) Certain compounds of the invention were tested in a miniaturized screening version of the Ames test that requires a small amount of compound compared with the regulatory test. The Ames fluctuation assay is performed in 384-well plates using two Salmonella strains, TA98 and TA100. TA98 detects frameshifts and TA100 detects base substitutions leading to missense mutations. Whereas the original Ames test is carried out by plating bacteria onto selective agar plates, the Ames fluctuation assay is carried out in liquid culture using 384-well plates. The bacterial plates are incubated with the test compounds for 96 hours, after which bacterial growth is measured spectrophotometrically using a pH indicator that changes color in response to the acidification of the media due to bacterial growth.
(§2) Metabolic activation is achieved by using rat liver S9 fraction (0.2 mg/ml). To prevent false negatives due to bacteriocidal or bacteriostatic effects, a bacterial cytotoxicity assay is conducted in parallel with the Ames fluctuation assay. Compounds are typically tested in both bacterial strains with and without S9, at four concentrations (5, 10, 50 and 100 μM) with n=48 wells. A bacterial cytotoxicity test is conducted in parallel at 8 concentrations (with 100 μM as the highest concentration) and n=3 wells. Four reference compounds (quercetin, streptozotocin, aminoanthracene and mitomycin C) are included in all experiments.
(§3) The significance of the positive counts between the treatment (in the presence of compound) and the control (in the absence of test compound) are calculated using the one-tailed Fisher's exact test—the significance levels are reported as follows: • Weak positive, if 0.01≦p≦0.05, denoted as “+” • Strong positive, if 0.001≦p≦0.01, denoted as “++” • Very strong positive, if p<0.001, denoted as “+++” • Hyphens (−) indicate negative results

[2] = test system: Salmonella strain TA100
Procedure: as §1, §2, §3

[3] = test system: Salmonella typhimurium strain TA100; assay: Ames plate assay, TA100
Procedure: (§4) Certain compounds of the invention were tested for their potential to induce gene mutations in bacterial strains of Salmonella typhimurium (strains TA1535, TA1537, TA98, TA100) and Escherichia coli (strain WP2uvrA(pKM101)) in a bacterial mutation assay in the absence and presence of metabolite activation (rat S9-mix). Compounds are tested at the following dose levels: 50, 150, 500, or 1500 μg/plate.
(§5) Vehicle control treatment is the vehicle used to prepare the test compound formulation diluted to the same extent as the test compound solution. Positive controls using known mutagens are included for each strain with and without rat S9 mix. Four plates are used for the vehicle control and two replicate plates per dose per strain for the treated groups and for each positive control. At the end of incubation the number of revertant colonies per plate are recorded and mean values calculated for each vehicle control, positive control and concentration of test compound used. Results are also expressed as a ratio of the mean values to the mean concurrent vehicle control value (i.e. fold increase).

[4] = test system: Escherichia coli strain WP2uvrA(pKM101); assay: Ames plate assay, WP2uvrA(pKM101)
Procedure: as §4, §5

[5] = test system: Salmonella typhimurium strain TA1535; assay: Ames plate assay, TA1535
Procedure: as §4, §5

[6] = test system: Salmonella typhimurium strain TA98; assay: Ames plate assay, TA98
Procedure: as §4, §5

[7] = test system: Salmonella typhimurium strain TA1537; assay: Ames plate assay, TA1537
Procedure: as §4, §5

[8] = test system: Salmonella strains, TA98 and TA100; conditions: with rat liver S9 fraction
Excerpt: The Ames Salmonella/microsome mutagenicity assay (Salmonella test; Ames test) is a standard, short-term bacterial reverse mutation assay specifically designed to detect a wide range of chemical substances that can produce genetic damage leading to gene mutations. The test employs several histidine dependent Salmonella strains each carrying different mutations in various genes of the histidine operon (Mortelmans and Zeiger 2000, Mutation Research 455, 29-60). […]
Certain compounds of the invention were tested in a miniaturized screening version of the Ames test that requires a small amount of compound compared with the regulatory test. […] The bacterial plates are incubated with the test compounds for 96 hours, after which bacterial growth is measured spectrophotometrically using a pH indicator that changes color in response to the acidification of the media due to bacterial growth. […]
as §3

With `CCOC(=O)N1Cc2nc(-c3ccc(N)cc3)nc(N3CCOC[C@@H]3C)c2C1` [Example 137] the “Ames fluctuation assay TA98 +S9” value ([1]; TA98, +S9, 5 μM) was “+++ +++ +++ +++ (Very strong positive, if p<0.001, denoted as “+++”)”, the “Ames fluctuation assay TA98 +S9” value ([1]; TA98, +S9, 10 μM) was “+++ +++ +++ +++ (Very strong positive, if p<0.001, denoted as “+++”)” and the “Ames fluctuation assay TA98 +S9” value ([1]; TA98, +S9, 50 μM) was “+++ +++ +++ +++ (Very strong positive, if p<0.001, denoted as “+++”)”. The “Ames fluctuation assay TA98 +S9” value ([1]; TA98, +S9, 100 μM) was “+++ +++ +++ +++ (Very strong positive, if p<0.001, denoted as “+++”)”, the “Ames fluctuation assay TA100 +S9” value ([2]; TA100, +S9, 5 μM) was “−” and the “Ames fluctuation assay TA100 +S9” value ([2]; TA100, +S9, 10 μM) was “−”. For the same compound, the “Ames fluctuation assay TA100 +S9” value ([2]; TA100, +S9, 50 μM) was “++ (Strong positive, if 0.001≦p≦0.01, denoted as “++”)” and the “Ames fluctuation assay TA100 +S9” value ([2]; TA100, +S9, 100 μM) was “−”.
`CCOC(=O)N1Cc2nc(-c3ccc(N)cc3F)nc(N3CCOC[C@@H]3C)c2C1` [Example 138] was tested, and the “Ames plate assay TA100 +S9” value ([3]; TA100, +S9, 50 μg/Plate) was “−”, the “Ames plate assay TA100 +S9” value ([3]; TA100, +S9, 150 μg/Plate) was “−” and the “Ames plate assay TA100 +S9” value ([3]; TA100, +S9, 500 μg/Plate) was “−”. The “Ames plate assay TA100 +S9” value ([3]; TA100, +S9, 1500 μg/Plate) was “−”, the “Ames plate assay TA100 −S9” value ([3]; TA100, −S9, 50 μg/Plate) was “−” and the “Ames plate assay TA100 −S9” value ([3]; TA100, −S9, 150 μg/Plate) was “−”. For the same compound, the “Ames plate assay TA100 −S9” value ([3]; TA100, −S9, 500 μg/Plate) was “−”, the “Ames plate assay TA100 −S9” value ([3]; TA100, −S9, 1500 μg/Plate) was “−” and the “Ames plate assay WP2uvrA (pKM101) +S9” value ([4]; +S9, 50 μg/Plate) was “−”. For the same compound, the “Ames plate assay WP2uvrA (pKM101) +S9” value ([4]; +S9, 150 μg/Plate) was “−”, the “Ames plate assay WP2uvrA (pKM101) +S9” value ([4]; +S9, 500 μg/Plate) was “−” and the “Ames plate assay WP2uvrA (pKM101) +S9” value ([4]; +S9, 1500 μg/Plate) was “−”. The “Ames plate assay WP2uvrA (pKM101) −S9” value ([4]; −S9, 50 μg/Plate) was “−”, the “Ames plate assay WP2uvrA (pKM101) −S9” value ([4]; −S9, 150 μg/Plate) was “−” and the “Ames plate assay WP2uvrA (pKM101) −S9” value ([4]; −S9, 500 μg/Plate) was “−”. The “Ames plate assay WP2uvrA (pKM101) −S9” value ([4]; −S9, 1500 μg/Plate) was “−”, the “Ames plate assay TA1535 +S9” value ([5]; TA1535, +S9, 50 μg/Plate) was “−” and the “Ames plate assay TA1535 +S9” value ([5]; TA1535, +S9, 150 μg/Plate) was “−”. The “Ames plate assay TA1535 +S9” value ([5]; TA1535, +S9, 500 μg/Plate) was “−”, the “Ames plate assay TA1535 +S9” value ([5]; TA1535, +S9, 1500 μg/Plate) was “−” and the “Ames plate assay TA1535 −S9” value ([5]; TA1535, −S9, 50 μg/Plate) was “−”. The “Ames plate assay TA1535 −S9” value ([5]; TA1535, −S9, 150 μg/Plate) was “−”, the “Ames plate assay TA1535 −S9” value ([5]; TA1535, −S9, 500 μg/Plate) was “−” and the “Ames plate assay TA1535 −S9” value ([5]; TA1535, −S9, 1500 μg/Plate) was “−”. The “Ames plate assay TA98 +S9” value ([6]; TA98, +S9, 50 μg/Plate) was “−”, the “Ames plate assay TA98 +S9” value ([6]; TA98, +S9, 150 μg/Plate) was “−” and the “Ames plate assay TA98 +S9” value ([6]; TA98, +S9, 500 μg/Plate) was “−”. The “Ames plate assay TA98 +S9” value ([6]; TA98, +S9, 1500 μg/Plate) was “−”, the “Ames plate assay TA98 −S9” value ([6]; TA98, −S9, 50 μg/Plate) was “−” and the “Ames plate assay TA98 −S9” value ([6]; TA98, −S9, 150 μg/Plate) was “−”. The “Ames plate assay TA98 −S9” value ([6]; TA98, −S9, 500 μg/Plate) was “−”, the “Ames plate assay TA98 −S9” value ([6]; TA98, −S9, 1500 μg/Plate) was “−” and the “Ames plate assay TA1537 +S9” value ([7]; TA1537, +S9, 50 μg/Plate) was “−”. The “Ames plate assay TA1537 +S9” value ([7]; TA1537, +S9, 150 μg/Plate) was “−”, the “Ames plate assay TA1537 +S9” value ([7]; TA1537, +S9, 500 μg/Plate) was “−” and the “Ames plate assay TA1537 +S9” value ([7]; TA1537, +S9, 1500 μg/Plate) was “−”. The “Ames plate assay TA1537 −S9” value ([7]; TA1537, −S9, 50 μg/Plate) was “−”, the “Ames plate assay TA1537 −S9” value ([7]; TA1537, −S9, 150 μg/Plate) was “−” and the “Ames plate assay TA1537 −S9” value ([7]; TA1537, −S9, 500 μg/Plate) was “−”. For the same compound, the “Ames plate assay TA1537 −S9” value ([7]; TA1537, −S9, 1500 μg/Plate) was “−”.
In the case of `CCOC(=O)N1Cc2nc(-c3ccc(N)c(F)c3)nc(N3CCOC[C@@H]3C)c2C1` [Intermediate 19], the “Ames fluctuation assay TA98 +S9” value ([1]; TA98, +S9, 5 μM) is reported as “+++ +++ +++ +++ (Very strong positive, if p<0.001, denoted as “+++”)”, the “Ames fluctuation assay TA98 +S9” value ([1]; TA98, +S9, 10 μM) is reported as “+++ +++ +++ +++ (Very strong positive, if p<0.001, denoted as “+++”)” and the “Ames fluctuation assay TA98 +S9” value ([1]; TA98, +S9, 50 μM) is reported as “+++ +++ +++ +++ (Very strong positive, if p<0.001, denoted as “+++”)”. For the same compound, the “Ames fluctuation assay TA98 +S9” value ([1]; TA98, +S9, 100 μM) was “+++ +++ +++ +++ (Very strong positive, if p<0.001, denoted as “+++”)”, the “Ames fluctuation assay TA100 +S9” value ([2]; TA100, +S9, 5 μM) was “−” and the “Ames fluctuation assay TA100 +S9” value ([2]; TA100, +S9, 10 μM) was “+++ (Very strong positive, if p<0.001, denoted as “+++”)”. The “Ames fluctuation assay TA100 +S9” value ([2]; TA100, +S9, 50 μM) was “+++ (Very strong positive, if p<0.001, denoted as “+++”)” and the “Ames fluctuation assay TA100 +S9” value ([2]; TA100, +S9, 100 μM) was “+++ (Very strong positive, if p<0.001, denoted as “+++”)”.
In the case of `CCOC(=O)N1Cc2nc(-c3ccc(N)cc3)nc(N3CCOC[C@@H]3C)c2C1` [Metabolite Example 137, (S)-ethyl 2-(4-aminophenyl)-4-(3-methylmorpholino)-5H-pyrrolo[3,4-d]pyrimidine-6(7H)-carboxylate], the Ames assay result [8] is reported as “Ames positive”.
